Tests used:
large (Lg) crabgrass = experiment: Test A postemergence; format: in vivo, Digitaria sanguinalis; details: Digitaria sanguinalis, post-emergence, 240 h
Method in brief: (§1)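 Greenhouse pot test, loam/sand soil. Formulation: non-phytotoxic solvent mix plus surfactant. Pre: directed spray onto soil after sowing. Post: plants at 1–2 leaf, 2–10 cm. Rated visually vs untreated controls at ~10 d, 0 (no effect) to 100 (complete control).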

velvetleaf = experiment: Test A postemergence; format: in vivo, Abutilon theophrasti; details: Abutilon theophrasti, post-emergence, 240 h, 0 to 100 scale where 0 is no effect and 100 is complete control, read-out: Plant response rating, Velvetleaf
Method in brief: as §1

barnyardgrass = experiment: Test B flooded paddy test; format: in vivo, Echinochloa crus-galli; details: Echinochloa crus-galli; Flood, 250 g ai/ha; 0 to 100 scale where 0 is no effect and 100 is complete control; read-out: Plant response rating, Barnyardgrass
Method in brief: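 Seedlings are raised to two leaves, flooded to a depth of 3 cm and dosed by adding the compound to the floodwater. Water level is kept constant, and plants are scored visually versus controls 13–15 days later (0 = no effect, 100 = complete control).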

galium = experiment: Test C preemergence; format: in vivo, Galium aparine; details: Galium, pre-emergence
Method in brief: (§2)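 Seeds are planted in blended loam soil and sand and treated preemergence, while seedlings in a peat moss/vermiculite medium receive postemergence sprays at 2 to 18 cm height. All plants stay in the greenhouse for 13 to 15 days before visual comparison with controls on a 0–100 scale.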

corn = experiment: Test C preemergence; format: in vivo, Zea mays; details: Zea mays, pre-emergence
Method in brief: as §2

morningglory [1] = experiment: Test C preemergence; format: in vivo, Ipomoea coccinea; details: Ipomoea, pre-emergence
Method in brief: as §2

yellow nutsedge = experiment: Test C preemergence; format: in vivo, Cyperus esculentus; details: Cyperus, pre-emergence
Method in brief: as §2

wheat, winter = experiment: Test C postemergence; format: in vivo, Triticum aestivum; details: Triticum aestivum, post-emergence
Method in brief: as §2

lambsquarters = experiment: Test C postemergence; format: in vivo, Chenopodium album; details: Chenopodium album, post-emergence
Method in brief: as §2

morningglory [2] = experiment: Test C postemergence; format: in vivo, Ipomoea coccinea; details: Ipomoea, post-emergence
Method in brief: as §2

ragweed = experiment: Test C postemergence; format: in vivo, Ambrosia elatior; details: Ambrosia artemisiifolia, post-emergence
Method in brief: as §2

soybean = experiment: Test C postemergence; format: in vivo, Glycine max; details: Glycine max, post-emergence
Method in brief: as §2

oilseed rape = experiment: Test C postemergence; format: in vivo, Brassica napus; details: Brassica napus, post-emergence
Method in brief: as §2

SMILES: N#Cc1cccc(Oc2ncc(F)cn2)c1-n1cc(C(F)(F)F)cn1 [Compound 79, 3-[(5-fluoro-2-pyrimidinyl)oxy]-2-[4-(trifluoromethyl)-1H-pyrazol-1-yl]benzonitrile]
- pest or weed control at 125 g/ha (large (Lg) crabgrass; 125 g ai/ha, 0 to 100 scale where 0 is no effect and 100 is complete control, read-out: Plant response rating, Crabgrass, Large): 100%
- pest or weed control at 500 g/ha (large (Lg) crabgrass; 500 g ai/ha, 0 to 100 scale, 0 no effect, 100 complete control, read-out: Plant response rating Crabgrass, Large): 100%
- pest or weed control at 125 g/ha (velvetleaf; 125 g ai/ha): 100%
- pest or weed control at 500 g/ha (velvetleaf; 500 g ai/ha): 100%
- pest or weed control at 250 g/ha (barnyardgrass): 40%
- pest or weed control at 62 g/ha (galium; 62 g ai/ha, preemergence, scale 0 (no effect) to 100 (complete control), read-out: Galium plant response rating): 90%
- pest or weed control at 125 g/ha (galium; 125 g ai/ha, preemergence, scale 0 (no effect) to 100 (complete control), read-out: Galium plant response rating): 90%
- pest or weed control at 250 g/ha (galium; 250 g ai/ha, preemergence, scale 0 (no effect) to 100 (complete control), read-out: Galium plant response rating): 90%
- pest or weed control at 31 g/ha (galium; Preemergence, 31 g ai/ha, scale 0 to 100, 0 no effect, 100 complete control, read-out: Plant response rating, Galium): 90%
- plant injury at 125 g/ha (corn; 125 g ai/ha, preemergence, scale 0 (no effect) to 100 (complete control), read-out: Corn plant response rating): 80%
- plant injury at 250 g/ha (corn; 250 g ai/ha, preemergence, scale 0 (no effect) to 100 (complete control), read-out: Corn plant response rating): 95%
- Corn plant response rating (crop injury, 0 = no effect, 100 = complete kill) at 31 g/ha (corn; Preemergence, 31 g ai/ha, scale 0 to 100, 0 no effect, 100 complete control): 40%
- pest or weed control at 62 g/ha (morningglory [1]; 62 g ai/ha, preemergence, scale 0 (no effect) to 100 (complete control), read-out: Morningglory plant response rating): 100%
- pest or weed control at 125 g/ha (morningglory [1]; 125 g ai/ha, preemergence, scale 0 (no effect) to 100 (complete control), read-out: Morningglory plant response rating): 100%
- pest or weed control at 250 g/ha (morningglory [1]; 250 g ai/ha, preemergence, scale 0 (no effect) to 100 (complete control), read-out: Morningglory plant response rating): 100%
- pest or weed control at 31 g/ha (morningglory [1]; Preemergence, 31 g ai/ha, scale 0 to 100, 0 no effect, 100 complete control, read-out: Plant response rating, Morningglory): 95%
- pest or weed control at 62 g/ha (yellow nutsedge; 62 g ai/ha, preemergence, scale 0 (no effect) to 100 (complete control), read-out: Nutsedge, Yellow plant response rating): 15%
- pest or weed control at 125 g/ha (yellow nutsedge; 125 g ai/ha, preemergence, scale 0 (no effect) to 100 (complete control), read-out: Nutsedge, Yellow plant response rating): 65%
- pest or weed control at 250 g/ha (yellow nutsedge; 250 g ai/ha, preemergence, scale 0 (no effect) to 100 (complete control), read-out: Nutsedge, Yellow plant response rating): 75%
- pest or weed control at 31 g/ha (yellow nutsedge; Preemergence, 31 g ai/ha, scale 0 to 100, 0 no effect, 100 complete control, read-out: Plant response rating, Nutsedge, Yellow): 10%
- plant injury at 125 g/ha (wheat, winter; 125 g ai/ha, postemergence, read-out: Plant response rating (0 to 100), Wheat): 5%
- plant injury at 250 g/ha (wheat, winter; 250 g ai/ha, postemergence, read-out: Plant response rating (0 to 100), Wheat): 35%
- plant injury at 31 g/ha (wheat, winter; Postemergence, 31 g ai/ha, scale 0 to 100 (0 no effect, 100 complete control), 13 to 15 days, read-out: Plant response rating, Wheat): 0%
- plant injury at 62 g/ha (wheat, winter; Postemergence, 62 g ai/ha, scale 0 to 100 (0 no effect, 100 complete control), read-out: Plant response rating, Wheat): 5%
- pest or weed control at 125 g/ha (lambsquarters; 125 g ai/ha, postemergence, read-out: Plant response rating (0 to 100), Lambsquarters): 95%
- pest or weed control at 250 g/ha (lambsquarters; 250 g ai/ha, postemergence, read-out: Plant response rating (0 to 100), Lambsquarters): 98%
- pest or weed control at 31 g/ha (lambsquarters; Postemergence, 31 g ai/ha, scale 0 to 100 (0 no effect, 100 complete control), 13 to 15 days, read-out: Plant response rating, Lambsquarters): 90%
- pest or weed control at 62 g/ha (lambsquarters; Postemergence, 62 g ai/ha, scale 0 to 100 (0 no effect, 100 complete control), read-out: Plant response rating, Lambsquarters): 95%
- pest or weed control at 125 g/ha (morningglory [2]; 125 g ai/ha, postemergence, read-out: Plant response rating (0 to 100), Morningglory): 95%
- pest or weed control at 250 g/ha (morningglory [2]; 250 g ai/ha, postemergence, read-out: Plant response rating (0 to 100), Morningglory): 98%
- pest or weed control at 31 g/ha (morningglory [2]; Postemergence, 31 g ai/ha, scale 0 to 100 (0 no effect, 100 complete control), 13 to 15 days, read-out: Plant response rating, Morningglory): 70%
- pest or weed control at 62 g/ha (morningglory [2]; Postemergence, 62 g ai/ha, scale 0 to 100 (0 no effect, 100 complete control), read-out: Plant response rating, Morningglory): 95%
- pest or weed control at 125 g/ha (ragweed; 125 g ai/ha, postemergence, read-out: Plant response rating (0 to 100), Ragweed): 70%
- pest or weed control at 250 g/ha (ragweed; 250 g ai/ha, postemergence, read-out: Plant response rating (0 to 100), Ragweed): 85%
- pest or weed control at 31 g/ha (ragweed; Postemergence, 31 g ai/ha, scale 0 to 100 (0 no effect, 100 complete control), 13 to 15 days, read-out: Plant response rating, Ragweed): 55%
- pest or weed control at 62 g/ha (ragweed; Postemergence, 62 g ai/ha, scale 0 to 100 (0 no effect, 100 complete control), read-out: Plant response rating, Ragweed): 70%
- Soybean plant response rating (crop injury, 0-100 scale) at 125 g/ha (soybean; 125 g ai/ha, postemergence, read-out: Plant response rating (0 to 100), Soybean): 90%
- Soybean plant response rating (crop injury, 0-100 scale) at 250 g/ha (soybean; 250 g ai/ha, postemergence): 95%
- Soybean plant response rating (crop injury, 0-100 scale) at 31 g/ha (soybean; Postemergence, 31 g ai/ha, scale 0 to 100 (0 no effect, 100 complete control), 13 to 15 days): 65%
- Soybean plant response rating (crop injury, 0-100 scale) at 62 g/ha (soybean; Postemergence, 62 g ai/ha, scale 0 to 100 (0 no effect, 100 complete control)): 85%
- plant injury at 125 g/ha (oilseed rape; 125 g ai/ha, postemergence, read-out: Plant response rating (0 to 100), Oilseed Rape): 50%
- plant injury at 250 g/ha (oilseed rape; 250 g ai/ha, postemergence, read-out: Plant response rating (0 to 100), Oilseed Rape): 90%
- plant injury at 31 g/ha (oilseed rape; Postemergence, 31 g ai/ha, scale 0 to 100 (0 no effect, 100 complete control), 13 to 15 days, read-out: Plant response rating, Oilseed Rape): 30%
- plant injury at 62 g/ha (oilseed rape; Postemergence, 62 g ai/ha, scale 0 to 100 (0 no effect, 100 complete control), read-out: Plant response rating, Oilseed Rape): 50%

— patent US9695155B2, “Herbicidal substituted pyrimidinyloxy benzene compounds” (E. I. DU PONT DE NEMOURS AND COMPANY, priority 2013, dated 2017)
